Measurements: patent publication US10358425B1, “Dihydropyrimidones and pharmaceutical compositions thereof” (King Abdulaziz University, priority 2018, dated 2019)

melting point: 267 °C
SMILES: O=C1NC(O)=C(C(=O)c2ccccc2)C(c2ccccc2)N1 (stereo not shown) [Compound 7, 5-benzoyl-6-hydroxy-4-phenyl-3,4-dihydropyrimidin-2(1H)-one]
